Reference: patent publication US4061645A, “2-Trichloromethyl-5-methylsulfinyl-1,3,4-thiadiazole” (Schering Aktiengesellschaft, priority 1972, dated 1977)

Test system: Asperqilus niger
Assay: Agar test (Example 7), Aspergillus
Format: cell-based
Details: 10 ppm; 5 days at 22° C; control 100
Description: (§1) The fungicidal action of the agents according to the invention was tested in artificial nutrient media against plant-pathogenic fungi in Petri dishes (agar test). The procedure was to sterilize the medium consisting of 2% malt extract and 1.5% agar-agar powder. Before the solidification of the medium, the active substances were added to it, mixing thoroughly, so that the medium received 10 parts of active substance per million (ppm). After the solidification of the medium, the latter was inoculated with a platinum dropper which contained 100 spores each of the fungi to be tested, and after five days at 22° C, an evaluation was made by measuring the diameter of the colonies in mm.

Structure (SMILES)	diameter of the colonies [mm]
C[S+]([O-])c1nnc(C(Cl)(Cl)Cl)s1 (stereo not drawn) [Compound 8, 2-trichloromethyl-5-methylsulfinyl-1,3,4-thiadiazole]	0
C[S+]([O-])c1nnc(C(Cl)Cl)s1 (stereo not drawn) [Compound 3, 2-dichloromethyl-5-methylsulfinyl-1,3,4-thiadiazole]	50
CCS(=O)(=O)c1nnc(C(Cl)Cl)s1 [Compound 18, 2-dichloromethyl-5-ethylsulfonyl-1,3,4-thiadiazole]	0

Test system: Stemphylium ilicis
Assay: Agar test (Example 7), Stemphylium
Format: cell-based
Details: 10 ppm; 5 days at 22° C; control 100
Description: as §1

Structure (SMILES)	diameter of the colonies [mm]
C[S+]([O-])c1nnc(C(Cl)(Cl)Cl)s1 (stereo not drawn) [Compound 8, 2-trichloromethyl-5-methylsulfinyl-1,3,4-thiadiazole]	0
C[S+]([O-])c1nnc(C(Cl)Cl)s1 (stereo not drawn) [Compound 3, 2-dichloromethyl-5-methylsulfinyl-1,3,4-thiadiazole]	0
CCS(=O)(=O)c1nnc(C(Cl)Cl)s1 [Compound 18, 2-dichloromethyl-5-ethylsulfonyl-1,3,4-thiadiazole]	0

Test system: Colletotrichum gloeosporioides
Assay: Agar test (Example 7), Colletotrichum
Format: cell-based
Details: 10 ppm; 5 days at 22° C; control 100
Description: as §1

Structure (SMILES)	diameter of the colonies [mm]
C[S+]([O-])c1nnc(C(Cl)(Cl)Cl)s1 (stereo not drawn) [Compound 8, 2-trichloromethyl-5-methylsulfinyl-1,3,4-thiadiazole]	0
C[S+]([O-])c1nnc(C(Cl)Cl)s1 (stereo not drawn) [Compound 3, 2-dichloromethyl-5-methylsulfinyl-1,3,4-thiadiazole]	0
CCS(=O)(=O)c1nnc(C(Cl)Cl)s1 [Compound 18, 2-dichloromethyl-5-ethylsulfonyl-1,3,4-thiadiazole]	41

Test system: Helminthosporium sativum
Assay: Agar test (Example 7), Helminthosporium
Format: cell-based
Details: 10 ppm; 5 days at 22° C; control 100
Description: as §1

Structure (SMILES)	diameter of the colonies [mm]
C[S+]([O-])c1nnc(C(Cl)(Cl)Cl)s1 (stereo not drawn) [Compound 8, 2-trichloromethyl-5-methylsulfinyl-1,3,4-thiadiazole]	0
C[S+]([O-])c1nnc(C(Cl)Cl)s1 (stereo not drawn) [Compound 3, 2-dichloromethyl-5-methylsulfinyl-1,3,4-thiadiazole]	0
CCS(=O)(=O)c1nnc(C(Cl)Cl)s1 [Compound 18, 2-dichloromethyl-5-ethylsulfonyl-1,3,4-thiadiazole]	0

Test system: Fusarium oxysporum f. callistephi
Assay: Fusarium infested compost soil, Callistephus chinesis seedlings (Example 5)
Format: in vivo
Details: 50 mg active ingredient per liter of soil; of 4 seedlings
Excerpt: Steamed compost soil was inoculated with a spore suspension of Fusarium oxysporum f. callistephi. After homogeneous mixture of the products with the infested soil, the products were present as 20% powder preparations, and after a waiting period of 8 days, there were set out per concentration 4 seedlings of Callistephus chinesis, master aster "Sun Ray" as host plants.

Structure (SMILES)	Number of attacked plants after 3 weeks
C[S+]([O-])c1nnc(C(Cl)(Cl)Cl)s1 (stereo not drawn) [Compound 8, 2-trichloromethyl-5-methylsulfinyl-1,3,4-thiadiazole]	0
C[S+]([O-])c1nnc(C(Cl)Cl)s1 (stereo not drawn) [Compound 3, 2-dichloromethyl-5-methylsulfinyl-1,3,4-thiadiazole]	0

Same assay, conditions: 100 mg active ingredient per liter of soil; of 4 seedlings

Structure (SMILES)	Number of attacked plants after 3 weeks
C[S+]([O-])c1nnc(C(Cl)(Cl)Cl)s1 (stereo not drawn) [Compound 8, 2-trichloromethyl-5-methylsulfinyl-1,3,4-thiadiazole]	0
C[S+]([O-])c1nnc(C(Cl)Cl)s1 (stereo not drawn) [Compound 3, 2-dichloromethyl-5-methylsulfinyl-1,3,4-thiadiazole]	0

Test system: Botrytis cinerea
Assay: Agar test (Example 7), Botrytis
Format: cell-based
Details: 10 ppm; 5 days at 22° C; control 100
Description: as §1

Structure (SMILES)	diameter of the colonies [mm]
C[S+]([O-])c1nnc(C(Cl)(Cl)Cl)s1 (stereo not drawn) [Compound 8, 2-trichloromethyl-5-methylsulfinyl-1,3,4-thiadiazole]	0
C[S+]([O-])c1nnc(C(Cl)Cl)s1 (stereo not drawn) [Compound 3, 2-dichloromethyl-5-methylsulfinyl-1,3,4-thiadiazole]	36
CCS(=O)(=O)c1nnc(C(Cl)Cl)s1 [Compound 18, 2-dichloromethyl-5-ethylsulfonyl-1,3,4-thiadiazole]	13

Test system: Pythium ultimum
Assay: Pythium ultimum infested compost soil, marrow peas (Example 2)
Format: in vivo
Details: 10 mg active ingr. per liter of soil; 3 weeks
Excerpt: Steamed compost soil was inoculated with mycelium of Pythium ultimum.

Structure (SMILES)	Weight of fresh plant [g]
C[S+]([O-])c1nnc(C(Cl)(Cl)Cl)s1 (stereo not drawn) [Compound 8, 2-trichloromethyl-5-methylsulfinyl-1,3,4-thiadiazole]	12
C[S+]([O-])c1nnc(C(Cl)Cl)s1 (stereo not drawn) [Compound 3, 2-dichloromethyl-5-methylsulfinyl-1,3,4-thiadiazole]	22

Same assay, conditions: 10 mg active ingr. per liter of soil; of 25 grains

Structure (SMILES)	Number of sound peas after 3 wks.
C[S+]([O-])c1nnc(C(Cl)(Cl)Cl)s1 (stereo not drawn) [Compound 8, 2-trichloromethyl-5-methylsulfinyl-1,3,4-thiadiazole]	19
C[S+]([O-])c1nnc(C(Cl)Cl)s1 (stereo not drawn) [Compound 3, 2-dichloromethyl-5-methylsulfinyl-1,3,4-thiadiazole]	24

Same assay, conditions: 20 mg active ingr. per liter of soil; 3 weeks

Structure (SMILES)	Weight of fresh plant [g]
C[S+]([O-])c1nnc(C(Cl)(Cl)Cl)s1 (stereo not drawn) [Compound 8, 2-trichloromethyl-5-methylsulfinyl-1,3,4-thiadiazole]	22
C[S+]([O-])c1nnc(C(Cl)Cl)s1 (stereo not drawn) [Compound 3, 2-dichloromethyl-5-methylsulfinyl-1,3,4-thiadiazole]	24

Same assay, conditions: 20 mg active ingr. per liter of soil; of 25 grains

Structure (SMILES)	Number of sound peas after 3 wks.
C[S+]([O-])c1nnc(C(Cl)(Cl)Cl)s1 (stereo not drawn) [Compound 8, 2-trichloromethyl-5-methylsulfinyl-1,3,4-thiadiazole]	24
C[S+]([O-])c1nnc(C(Cl)Cl)s1 (stereo not drawn) [Compound 3, 2-dichloromethyl-5-methylsulfinyl-1,3,4-thiadiazole]	24

Same assay, conditions: 30 mg active ingr. per liter of soil; 3 weeks

Structure (SMILES)	Weight of fresh plant [g]
C[S+]([O-])c1nnc(C(Cl)(Cl)Cl)s1 (stereo not drawn) [Compound 8, 2-trichloromethyl-5-methylsulfinyl-1,3,4-thiadiazole]	22
C[S+]([O-])c1nnc(C(Cl)Cl)s1 (stereo not drawn) [Compound 3, 2-dichloromethyl-5-methylsulfinyl-1,3,4-thiadiazole]	22

Same assay, conditions: 30 mg active ingr. per liter of soil; of 25 grains

Structure (SMILES)	Number of sound peas after 3 wks.
C[S+]([O-])c1nnc(C(Cl)(Cl)Cl)s1 (stereo not drawn) [Compound 8, 2-trichloromethyl-5-methylsulfinyl-1,3,4-thiadiazole]	25
C[S+]([O-])c1nnc(C(Cl)Cl)s1 (stereo not drawn) [Compound 3, 2-dichloromethyl-5-methylsulfinyl-1,3,4-thiadiazole]	25

Test system: Damping-off Fungi
Assay: Cotton seed disinfection, normal compost soil (Example 6)
Format: in vivo
Details: 100 mg active ingr. per kg of seed; 10% formulation; 15 days
Description: Cotton seeds disinfected with 10% formulations were seeded in normal compost soil (Damping-off Fungi), 25 grains per concentration. After a cultivation time of 15 days at 22°-25° C, the number of germinated sound cotton seedlings and their weight as fresh plants were determined.

Structure (SMILES)	Sound plants in % [%]	Weight of fresh plant [g]
C[S+]([O-])c1nnc(C(Cl)(Cl)Cl)s1 (stereo not drawn) [Compound 8, 2-trichloromethyl-5-methylsulfinyl-1,3,4-thiadiazole]	96	29
C[S+]([O-])c1nnc(C(Cl)Cl)s1 (stereo not drawn) [Compound 3, 2-dichloromethyl-5-methylsulfinyl-1,3,4-thiadiazole]	100	29

Test system: Rhizoctonia solani
Assay: Limit concentration of soil-fungicidal effectiveness, Rhizoctonia solani, infested soil seeded with peas (Example 1)
Format: in vivo
Details: soil, 480 h, 20 to 23 days, 22°-25° C, read-out: Limit concentration of the fungicidal effectiveness
Description: Limit concentrations of the soil-fungicidal effectiveness at homogeneous mixture of the products with the infested soil. Basic condition in the evaluation are a sound root formation without fungus necroses and germination of the seed of at least 90% compared with the result obtained in steamed soil. Per concentration there were seeded 25 grains of peas of the variety "Miracle of Kelvedon" (marrow pea) without a waiting period. The cultivation time in the tests was 20 to 23 days at a temperature of 22°-25° C. Four commercial products were included in the test series.
Rhizoctania solani: -- Steamed compost soil was inoculated with mycelium of Rhizoctonia solani.

Structure (SMILES)	minimal effective concentration [µg/mL]
C[S+]([O-])c1nnc(C(Cl)(Cl)Cl)s1 (stereo not drawn) [Compound 8, 2-trichloromethyl-5-methylsulfinyl-1,3,4-thiadiazole]	10
C[S+]([O-])c1nnc(C(Cl)Cl)s1 (stereo not drawn) [Compound 3, 2-dichloromethyl-5-methylsulfinyl-1,3,4-thiadiazole]	30
CCS(=O)(=O)c1nnc(C(Cl)Cl)s1 [Compound 18, 2-dichloromethyl-5-ethylsulfonyl-1,3,4-thiadiazole]	100

Test system: Rhizoctonia solani
Assay: Rhizoctonia solani infested compost soil, marrow peas (Example 3)
Format: in vivo
Details: 10 mg active ingr. per liter of soil; 3 weeks
Excerpt: Steamed compost soil was inoculated with mycelium of Rhizoctonia solani. After homogeneous mixture of the products with the infested soil, the products were present in the form of 20% powder preparations, the seeding of 25 grains of marrow peas of the variety "Miracle of Kelvedon" per concentration was effected without waiting period in clay dishes holding 1 liter of soil. The table lists the number of germinated sound peas, the weight of the fresh plant, and a root evaluation after a cultivation period of three weeks at 22°-25° C.

Structure (SMILES)	Weight of fresh plant [g]
C[S+]([O-])c1nnc(C(Cl)(Cl)Cl)s1 (stereo not drawn) [Compound 8, 2-trichloromethyl-5-methylsulfinyl-1,3,4-thiadiazole]	17
C[S+]([O-])c1nnc(C(Cl)Cl)s1 (stereo not drawn) [Compound 3, 2-dichloromethyl-5-methylsulfinyl-1,3,4-thiadiazole]	0

Same assay, conditions: 10 mg active ingr. per liter of soil; of 25 grains

Structure (SMILES)	Number of sound peas after 3 wks.
C[S+]([O-])c1nnc(C(Cl)(Cl)Cl)s1 (stereo not drawn) [Compound 8, 2-trichloromethyl-5-methylsulfinyl-1,3,4-thiadiazole]	21
C[S+]([O-])c1nnc(C(Cl)Cl)s1 (stereo not drawn) [Compound 3, 2-dichloromethyl-5-methylsulfinyl-1,3,4-thiadiazole]	0

Same assay, conditions: 20 mg active ingr. per liter of soil; 3 weeks

Structure (SMILES)	Weight of fresh plant [g]
C[S+]([O-])c1nnc(C(Cl)(Cl)Cl)s1 (stereo not drawn) [Compound 8, 2-trichloromethyl-5-methylsulfinyl-1,3,4-thiadiazole]	17
C[S+]([O-])c1nnc(C(Cl)Cl)s1 (stereo not drawn) [Compound 3, 2-dichloromethyl-5-methylsulfinyl-1,3,4-thiadiazole]	2

Same assay, conditions: 20 mg active ingr. per liter of soil; of 25 grains

Structure (SMILES)	Number of sound peas after 3 wks.
C[S+]([O-])c1nnc(C(Cl)(Cl)Cl)s1 (stereo not drawn) [Compound 8, 2-trichloromethyl-5-methylsulfinyl-1,3,4-thiadiazole]	24
C[S+]([O-])c1nnc(C(Cl)Cl)s1 (stereo not drawn) [Compound 3, 2-dichloromethyl-5-methylsulfinyl-1,3,4-thiadiazole]	2

Same assay, conditions: 30 mg active ingr. per liter of soil; 3 weeks

Structure (SMILES)	Weight of fresh plant [g]
C[S+]([O-])c1nnc(C(Cl)(Cl)Cl)s1 (stereo not drawn) [Compound 8, 2-trichloromethyl-5-methylsulfinyl-1,3,4-thiadiazole]	17
C[S+]([O-])c1nnc(C(Cl)Cl)s1 (stereo not drawn) [Compound 3, 2-dichloromethyl-5-methylsulfinyl-1,3,4-thiadiazole]	21

Same assay, conditions: 30 mg active ingr. per liter of soil; of 25 grains

Structure (SMILES)	Number of sound peas after 3 wks.
C[S+]([O-])c1nnc(C(Cl)(Cl)Cl)s1 (stereo not drawn) [Compound 8, 2-trichloromethyl-5-methylsulfinyl-1,3,4-thiadiazole]	24
C[S+]([O-])c1nnc(C(Cl)Cl)s1 (stereo not drawn) [Compound 3, 2-dichloromethyl-5-methylsulfinyl-1,3,4-thiadiazole]	22

Test system: Meloidogyne incognita
Assay: Nematocidal action, infested compost soil, cucumber seeds (Example 8)
Format: in vivo
Details: 40 mg per liter of soil; 30 days
Description: The products as 20% powder preparations were homogeneously admixed with a compost soil heavily infested by root gal nematodes. Without a waiting period, 20 cucumber seeds per concentration were seeded. After a cultivation time of 30 days at a temperature of 23°-25° C, the nematocidal action was evaluated by counting the root galls formed in the waterbath. The following table states the reduction of attack in percent. In the control, an average of 90 root galls per seedling had formed.

Structure (SMILES)	Nematocidal action in % (reduction of attack) [%]
C[S+]([O-])c1nnc(C(Cl)Cl)s1 (stereo not drawn) [Compound 3, 2-dichloromethyl-5-methylsulfinyl-1,3,4-thiadiazole]	100
CCS(=O)(=O)c1nnc(C(Cl)Cl)s1 [Compound 18, 2-dichloromethyl-5-ethylsulfonyl-1,3,4-thiadiazole]	61

Same assay, conditions: 60 mg per liter of soil; 30 days

Structure (SMILES)	Nematocidal action in % (reduction of attack) [%]
C[S+]([O-])c1nnc(C(Cl)Cl)s1 (stereo not drawn) [Compound 3, 2-dichloromethyl-5-methylsulfinyl-1,3,4-thiadiazole]	100
CCS(=O)(=O)c1nnc(C(Cl)Cl)s1 [Compound 18, 2-dichloromethyl-5-ethylsulfonyl-1,3,4-thiadiazole]	90
